Assay [1] relates to Dengue 2 virus (strain A 15). Description: In vitro plaque-reduction neutralization test (PRNT) of anti-peptide sera, serotype D2. It is filed as cell-based. The settings on record: sera of Balb/c mice immunized with peptide-BSA conjugate; titer = dilution giving 50% plaque number reduction; BHK-21 cells. As for the experimental part: Neutralization technique was carried out according to Morens (Morens, D. M. et al. 1985. Simplified plaque reduction neutralization assay for dengue viruses by semimicro methods in BHK-21 cells: Comparison of the BHK suspension test with standard plaque reduction neutralization. J. Clin. Microbiol. 22 p.250).
Dilutions of anti-peptide sera and of anti-BSA controls and negative sera from 1/10 to 1/640 were prepared. Each dilution of sera was put into contact with a dilution of the virus (strain A 15 of Dengue 2) having 15-20 PFU/50 ml.
The mixture was incubated at 37 C. during 1 hour. A total of 50 ml of each mixture were added in triplicate to BHK-21 cells in plates of 24 wells, and they were incubated in a CO2 incubator at 37 C. during 4 hours. Then, 0.5 ml of carboxymethylcellulose-containing medium were added, and it was incubated again for several days considering the viral serotype used. After these days tinction and the count of lysis plaques produced by the virus were carried out.
Titer was expressed in each case as the dilution at which it was obtained the 50% of plaque number reduction.
Background: Plaques are areas of infected cells; plaque reduction assays count them against a control.

Assay [2] has as its system Dengue virus serotype 1 (D1). The assay can be described thus: In vitro plaque-reduction neutralization test (PRNT) of anti-peptide sera, serotype D1. The conditions noted are these: sera of Balb/c mice immunized with peptide-BSA conjugate; titer = dilution giving 50% plaque number reduction; BHK-21 cells. It is filed as cell-based.
Assay [3] relates to Dengue virus serotype 4 (D4). Description: In vitro plaque-reduction neutralization test (PRNT) of anti-peptide sera, serotype D4. It is filed as cell-based. The conditions noted are these: sera of Balb/c mice immunized with peptide-BSA conjugate; titer = dilution giving 50% plaque number reduction; BHK-21 cells.
Assay [4] concerns four Dengue virus serotypes. Description: Induction of neutralizing antibodies (summary statement). It counts as cell-based. The settings on record: against the four Dengue virus serotypes; immunized mice. Here is the method:
Peptides were inoculated in Balb/c mice both conjugated or not to a carrier protein. The sera obtained after immunization with the conjugated peptides were tested by in vitro neutralization by reducing the number of plaques and by ELISA. We also studied the active protection against a Dengue 2 viral challenge in the immunized mice.

The test system of assay [5] is anti-peptide antibodies in sera of Dengue patients. The assay can be described thus: Indirect ELISA to detect anti-peptide antibodies, human sera. It counts as binding. The settings on record: 118 sera of Dengue patients diluted 1/200; for Percentage of positivity of human sera to peptide: peptide coated at 10 µg/ml. Here is the method:
Peptides 19-6, 20-1, 20-2, 20-3 were fixed to the plates in a 10 m g/ml concentration in coating buff they were incubated at 4 C. overnight Sera were added diluted 1/200 in PBS-Tween 20. Finally, total human /peroxidase anti-immunoglobuline conjugate was added, and subsequently, the substrate (orthophenylendiamine, H2O2, 0.05 M phosphate citrate buffer, pH 5) was added. The reading was carried out in an ELISA reader at 492 nm and the cut-off value for each peptide was determined.
The sera used were from subjects having viral clinical infection that was serologically diagnosed as Dengue by the techniques of Inhibition of the hemagglutination (Clarke, D. H. y Casals, J. 1958. Techniques for hemagglutination and hemagglutination—inhibition with Arthropod Borne Virus. Am. J. Trop. Med. Hyg. 7 p.561) and ELISA of inhibition (Vzquez, S., Fernndez, R. 1989. Utilizacin de un mtodo de ELISA de Inhibicin en el diagnstico serolgico de dengue. Rev. Cub. Med. Trop. 41(1) p18-26) for total anti-dengue antibodies.
The study induded 118 sera from patents of the epidemics occurred in Cuba 1981, Panama 1994 and Costa Rica 1994. Dengue virus 2 was isolated in these epidemics, besides serotype 1 and 4 in Costa Rica; they were classified according to the titers of inhibiting antibodies of hemagglutination in cases of primary and secondary infections.
A general note: An ELISA detects its analyte on a solid surface through an enzyme-linked reagent.

The test system of assay [6] is Dengue virus serotype 3 (D3). Description: In vitro plaque-reduction neutralization test (PRNT) of anti-peptide sera, serotype D3. It is filed as cell-based. The settings on record: sera of Balb/c mice immunized with peptide-BSA conjugate; titer = dilution giving 50% plaque number reduction; BHK-21 cells.
Assay [7] has as its system live, mouse-adapted dengue-2 virus (strain A15). The assay can be described thus: Protection assay, intracranial challenge of immunized mice. It is filed as in vivo, Balb/c mice. The conditions noted are these: mice immunized with conjugated peptides; 100 LD50 intracranial; observed up to 21 days; Fisher's test, p<0,05. As for the experimental part:
Male Balb/c mice of 4-6 weeks old were immunized with 50 mg of the peptide-BSA conjugate intraperitoneally. In addition, two immunization schemes were performed, one with BSA and the other with PBS. A total of 4 inoculations were carried out, each of them 15 days apart. The Freund's Complete Adjuvant was used in the first doses, and the Freund's Incomplete Adjuvant in the others. A blood sample was extracted from the retro-orbital vein seven days after the last inoculation.
Mice were challenged 7 days after the last immunization by intracraneal injection with an dilution of 1/2500 (corresponding to 100 LD50 lethal doses) of live, mouse-adapted dengue-2 virus (strain A15). […] Data were tested for statistical significance using Fisher's test.

Assay [8] has as its system spleen T lymphocytes cultured with dengue 2 virus. The assay can be described thus: In vitro blastogenesis assay of spleen T lymphocytes from peptide-immunized mice. It counts as cell-based, BALB/c mice. The conditions noted are these: mice immunized with non-conjugated peptides; cells cultured with dengue 2 virus. Here is the method:
T cells from 19-6 and 19-5 immunized mice proliferated in an in vitro blastogenesis assay when they were cultured with the dengue 2 virus. […] It could contain a T cell cryptic epitope, being recognized in the free form of peptide but not like a result of the immunodominant epitopes presentation and processing of the virus in a natural infection.
FIG. 5. Proliferative response to dengue 2 virus antigens (at concentrations of 10, 20 and 40 m g/ml) of spleen T cells from peptides-immunized mice 19-6, 19-5 and 20-2.

The next assay deals with synthetic peptides. The assay can be described thus: ELISA of sera from mice immunized with fusion proteins, against the synthetic peptides. The settings on record: mouse immunization with semipurified fusion proteins. It is filed as binding. An excerpt:
Mouse immunization with PD33 and PD34 fusion proteins semipurified by a non-denaturalizing protocol, has elicited high titers against them in ELISA (up to 1/100 000), and at the same time antibodies with titers up to 1/4000 in ELISA against the synthetic peptides have been obtained.

Entries after “also recorded” stand apart in the source; their conditions may differ.

We go through six molecules from patent publication US6383488B1, “Pre-M/M epitopes of dengue virus, synthetic peptides, chimeric proteins and their use” (priority 1997, dated 2002).

Turning to LETRTETWMSSEGAWKHAQRIE [B 20-3], the “Anti-peptide neutralization titer, D2” value in assay [1] is reported as 1/80. Further, the “Anti-peptide neutralization titer, D1” value in assay [2] is reported as 1/110. The “Anti-peptide neutralization titer, D4” value in assay [3] is recorded as 1/80. Moreover, the “Induction of neutralizing antibody production” value in assay [4] is recorded as “able to induce neutralizing antibody production”. In addition, in assay [5], the “Average of the reactivity index (optical density of the sample/cut-off value)” value amounted to 1.49 and the “Percentage of positivity of human sera to peptide” value (shortened to “Percentage”) is 83.1%. In addition, the “Anti-peptide neutralization titer, D3” value in assay [6] is given as 1/80.
Regarding NSTSTWVTYGTCTTTGEHRREKRSV [B 20-1], in assay [5], the “Average of the reactivity index (optical density of the sample/cut-off value)” value is 1.52 and the “Percentage” value amounted to 79.6%. For the same molecule, the “Level of protection (survival) after Dengue 2 virus challenge” value (from here on “Level of protection (survival)”) in [7] is listed as “statistically significant; also recorded: statistically significative level of protection”.
For CEDTITYKCPLLRQNEPEDIDCW [B 20-2], the “Virus-specific proliferative response of spleen T lymphocytes” value (“Virus-specific proliferative response” for short) in [8] is “did not elicit a significant proliferative response”. Further, in [5], the “Average of the reactivity index (optical density of the sample/cut-off value)” value came out at 1.57 and the “Percentage” value is 77.1%.
Regarding “RQNEPEDIDCWCNSTSTWVTYGTCTTTGEHRREKRS [B 19-5]”, in assay [8], the “Virus-specific proliferative response” value was “Virus-specific proliferative responses were demonstrated; also recorded: proliferated”. Further, the “Level of protection (survival)” value in assay [7] is on record as “statistically significant; also recorded: statistically significative level of protection”.
For the molecule LTTRNGEPHMIVMRQEKGKSLLFKTGDGV [B 19-6], in [8], the “Virus-specific proliferative response” value is given as “Virus-specific proliferative responses were demonstrated; also recorded: proliferated”. Besides, the “Anti-peptide neutralization titer, D2” value in assay [1] was 1/180. In addition, the “Anti-peptide neutralization titer, D1” value in assay [2] was 1/100. Also, in assay [3], the “Anti-peptide neutralization titer, D4” value was 1/160. Moreover, in assay [4], the “Induction of neutralizing antibody production” value is given as “able to induce neutralizing antibody production”. In [5], the “Average of the reactivity index (optical density of the sample/cut-off value)” value amounted to 1.07 and the “Percentage” value is listed as 56.8%. Moreover, the “Level of protection (survival)” value in assay [7] is “statistically significant; also recorded: statistically significative level of protection”. Moreover, the “Anti-peptide neutralization titer, D3” value in assay [6] is recorded as 1/60.

B1: PD33 (protein)
chain: MALVELKVPDIGGHENVDIIAVEVNVGDTIAVDDTLITLDLESVALTPHSGMGLETRAETWMSSEGAWKHAQRVESWILRNPRFLEMDVPAEVAGVVKEVKVKVGDKISEGGLIVVVEAEGTAAAPKAEAAAAPAQEAPKAAAPAPQAAQFGGSADAEYDVVVLGGGPGGYSAAFAAADEGLKVAIVERYKTLGGVCLNVGCIPSKALLHNAAVIDEVRHLAANGIKYPEPELDIDMLRAYKDGVVSRLTGGLAGMAKSRKVDVIQGDGQFLDPHHLEVSLTAGDAYEQAAPTGEKKIVAFKNCIIAAGSRVTKLPFIPEDPRIIDSSGALALKEVPGKLLIIGGGIIGLEMGTVYSTLGSRLDVVEMMDGLMQGADRDLVKVWQKQNEYRFDNIMVNTKTVAVEPKEDGVYVTFEGANAPKEPQRYDAVLVAAGRAPNGKLISAEKAGVAVTDRGFIEVDKQMRTNVPHIYAIGDIVGQPMLAHKAVHEGHVAAENCAGHKAYFDARVIPGVAYTSPEVAWVGETELSAKASGRKITKANFPWAASGRAIANGCDKPFTKLIFDAETGRIIGGGIVGPNGGDMIGEVCLAIEMGCDAADIGKTIHPHPTLGESIGMAAEVALGTCTDLPPQKKK
Consider B1, for which the “ELISA antibody titers against the synthetic peptides” value in the assay with synthetic peptides is “up to 1/4000”.
